Experimental data: article PMC7887336, “Altered functional properties of the codling moth Orco mutagenized in the intracellular loop-3” (Scientific Reports, 2021)
Where “and” joins values, the source holds several entries; their conditions need not be identical. Equal values may be shown once.

Experiments:
CpomOrco [1] = target: T1, CpomOrco (Cydia pomonella, UniProt H9A5M2); assay: Calcium imaging (Fluo-4) of HEK293A cells transfected with wild-type CpomOrco, VUAA1 stimulation; assay type: cell-based; conditions: for Fluo4 + cells, %: of bright field cells; for EC50 / Hill coefficient / maximum response (Hill fit of calcium response amplitudes): HEK293A, CpomOrco
Procedure: (§1) HEK293 cells lines (HEK293A/HEK293T) were grown in HEK cell media [Dulbecco's modified Eagle's medium containing 10% fetal bovine serum (MP Biomedicals, Solon, OH, USA), 2.0 mM L-glutamine, and 100 µg/mL penicillin/streptomycin (Invitrogen)] at 37 °C and 5% CO2. To test transient expression of wild type CpomOrco and CpomOrco^Q417H variant for calcium imaging and patch-clamp recording, 35-mm petri dishes containing semi-confluent HEK293A cells were transiently transfected. Cells were transfected with 0.6 µg of pcDNA40-DEST carrying the coding sequence of the CpomOrco variant (depending on the experiments). To report expression for calcium imaging experiments, 0.6 µg of a separate plasmid DNA [pEBFP2-Nuc, a gift from Robert Campbell (Addgene plasmid # 1489352)] carrying the coding sequence for a blue fluorescent protein (EBFP) was co-transfected. To report expression in patch-clamp recordings, 1.0 µg of a separate plasmid DNA (pXOOM, Clontech, Mountain View, CA, USA) carrying the coding sequence for a green fluorescent protein (GFP) was co-transfected. Expressions of fluorescent reporter genes were under the regulation of the same promoter for Cpom-genes (CMV). For specific experiments, co-transfections were conducted combining an additional 1.2 µg of pcDNA40-DEST/CpomOR3 or pcDNA40-DEST/CpomOR6a, as we previously described. Co-transfections with CpomOR3 were performed for dose–response experiments to pear ester: CpomOR3 was co-expressed with CpomOrco variants by the use of HEK293T (Fig. 3b); given the reported functional co-expression data of the CpomOrco + OR3 heteromers by the use of these specific cells. In brief, transfection DNAs were dissolved in 100 µL sterile DMEM, mixed with 3.0 µL Calfectin (SignaGen, Rockville, MD, USA) following the recommended protocol. Transfections were conducted overnight for up to 18 h, HEK cell media was replaced with 2.0 mL fresh media to incubate cells at 37 °C for up to 6–8 h, at which point part of the cell culture was spread in the middle of a 35-mm plate as individual cells or small clusters and rinsed at the sides with 2.0 mL fresh HEK media. After splitting, cells were allowed to recover for at least 1 day prior to calcium imaging.
Activation of HEK293 cells transfected with CpomOrco variants was tested using the same procedures we previously described. Petri dishes were incubated for 1 h at room temperature in 1.0 mL HEK Ca^++ Ringer (mM: 140 NaCl, 5.0 KCl, 2.0 CaCl2, 10 HEPES, pH 7.4) containing the fluorescent calcium indicator Fluo-4AM (Invitrogen) at 5–15 µM prepared with 0.2–0.06% Pluronic F-127 (Invitrogen). To monitor intracellular pH, HEK293A cells were loaded with 10.0 µL BCECF dye (Anaspec, Fremont, CA).
As reported in Cattaneo et al.[14], the buffer was removed after incubation, cells were rinsed with 4.0 mL fresh HEK Ca^++ Ringer and placed on the stage of an inverted microscope (Olympus IX-71, Olympus Corp., Tokyo, Japan) equipped with a cooled CCD camera (ORCA R2, Hamamatsu, Hamamatsu City, Japan). Cells were continuously superfused with Ca^++ Ringer using two gravity fed perfusion contours. The […] contour washing the cells (~ 250 µL/min) was switched rapidly to the stimulus contour using a multi-channel rapid solution changer (RSC-160, Bio-Logic, Claix, France) under the software control of Clampex 9 (Molecular Devices, Sunnyvale, CA, USA).
Fluorescence imaging was performed using settings optimized for Imaging Workbench 6 software (INDEC BioSystems, Santa Clara, CA, USA)[14]. The non-responsive cells were not included in these analyses. Each cell was assigned a region of interest (ROI) and changes in fluorescence intensity within each ROI were measured and expressed as the fractional change in fluorescence intensity (dF). Stored time series image stacks were analysed off-line using Imaging Workbench 6, Clampfit 10.5 (Molecular Devices) and SigmaPlot 11 (Systat Software Inc., San Jose, CA, USA). Dose–response curves were approximated using Hill equation. […]

CpomOrco^Q417H = CpomOrco^Q417H (Cydia pomonella, UniProt H9A5M2, Q417H); assay: Whole-cell voltage-clamp recordings of HEK293A cells transfected with CpomOrco^Q417H, VUAA1; assay type: cell-based; conditions: for EC50: EC50 (K1/2)
Procedure: as §1
(§2) Electrophysiological experiments were performed according with the same procedures we previously described. Patch pipettes were fabricated from borosilicate capillary glass (BF150-86–10, Sutter Instrument, CA, USA) using a Flaming-Brown micropipette puller (P-87, Sutter Instrument). Only patches with initial cell-attached seal resistance estimated higher than 1.0 GOhms were used in the experiments. Intracellular (pipette) solution for whole-cell experiments was KCl 140 mM, EGTA 1 mM, Hepes 5 mM, MES 5 mM, pH 8.0 or pH 5.5 (depending on the experiment) adjusted with either NaOH or HCl, standard Na^+ 140 mM. bath solution was usually NaCl 140 mM, EGTA 0.1 mM, Hepes 10 mM, pH 7.4 (adjusted with Tris-base or NaOH). VUAA1 doses (0–1000 µM) were added to the extracellular test solutions.
(§3) As described in methods of Cattaneo et al.[14], GFP positive HEK293A cells were visualized using either an Axiovert 100 inverted microscope (Carl Zeiss, Inc., München, Germany) equipped with a mercury vapour compressed-arc lamp (HBO100) coupled to widefield fluorescence filter set (1114–459, Carl Zeiss, Inc.) or Olympus IX-71 inverted microscope described above (Olympus Corp.). The Orco channel-mediated currents were investigated using whole-cell patch-clamp recordings. The currents were measured with a 200B patch-clamp amplifier (Molecular Devices) and a digital interface (Digidata 1320A, Molecular Devices), low pass filtered at 5.0 kHz, sampled at 1–2 kHz. Analysis of the data was carried out using pCLAMP 9.2/10.5 software (Molecular Devices) and SigmaPlot 11 (Systat Software Inc). […]

CpomOrco+OR6a = assay: VUAA1 responsiveness (Fluo4 +) of HEK293A cells co-transfected with CpomOrco and CpomOR6a; assay type: cell-based, Cydia pomonella; conditions: for Fluo4 + cells, %: of bright field cells
Procedure: HEK293 cells lines (HEK293A/HEK293T) were grown in HEK cell media [Dulbecco's modified Eagle's medium containing 10% fetal bovine serum (MP Biomedicals, Solon, OH, USA), 2.0 mM L-glutamine, and 100 µg/mL penicillin/streptomycin (Invitrogen)] at 37 °C and 5% CO2. To test transient expression of wild type CpomOrco and CpomOrco^Q417H variant for calcium imaging and patch-clamp recording, 35-mm petri dishes containing semi-confluent HEK293A cells were transiently transfected. Cells were transfected with 0.6 µg of pcDNA40-DEST carrying the coding sequence of the CpomOrco variant (depending on the experiments). To report expression for calcium imaging experiments, 0.6 µg of a separate plasmid DNA [pEBFP2-Nuc, a gift from Robert Campbell (Addgene plasmid # 1489352)] carrying the coding sequence for a blue fluorescent protein (EBFP) was co-transfected. To report expression in patch-clamp recordings, 1.0 µg of a separate plasmid DNA (pXOOM, Clontech, Mountain View, CA, USA) carrying the coding sequence for a green fluorescent protein (GFP) was co-transfected. Expressions of fluorescent reporter genes were under the regulation of the same promoter for Cpom-genes (CMV). For specific experiments, co-transfections were conducted combining an additional 1.2 µg of pcDNA40-DEST/CpomOR3 or pcDNA40-DEST/CpomOR6a, as we previously described. […]
Fluorescence imaging was performed using settings optimized for Imaging Workbench 6 software (INDEC BioSystems, Santa Clara, CA, USA)[14]. […] Each cell was assigned a region of interest (ROI) and changes in fluorescence intensity within each ROI were measured and expressed as the fractional change in fluorescence intensity (dF). Stored time series image stacks were analysed off-line using Imaging Workbench 6, Clampfit 10.5 (Molecular Devices) and SigmaPlot 11 (Systat Software Inc., San Jose, CA, USA). […]

CpomOrco [2] = target: T1, CpomOrco; assay: Whole-cell voltage-clamp recordings of HEK293A cells transfected with CpomOrco, VUAA1; assay type: cell-based; conditions: for EC50: EC50 (K1/2)
Procedure: as §1, §2, §3

[3] = after 30 min incubation at low pHe = 4.7
[4] = intracellular pH = 5.5, extracellular pH 7.4, -50 mV
[5] = intracellular pH = 8.0, extracellular pH 7.4, -50 mV
[6] = intracellular pH = 5.5, GFP positive cells tested
[7] = intracellular pH = 8.0, GFP positive cells tested

Chain of CpomOrco^Q417H (H9A5M2 entry or part of it Q417H): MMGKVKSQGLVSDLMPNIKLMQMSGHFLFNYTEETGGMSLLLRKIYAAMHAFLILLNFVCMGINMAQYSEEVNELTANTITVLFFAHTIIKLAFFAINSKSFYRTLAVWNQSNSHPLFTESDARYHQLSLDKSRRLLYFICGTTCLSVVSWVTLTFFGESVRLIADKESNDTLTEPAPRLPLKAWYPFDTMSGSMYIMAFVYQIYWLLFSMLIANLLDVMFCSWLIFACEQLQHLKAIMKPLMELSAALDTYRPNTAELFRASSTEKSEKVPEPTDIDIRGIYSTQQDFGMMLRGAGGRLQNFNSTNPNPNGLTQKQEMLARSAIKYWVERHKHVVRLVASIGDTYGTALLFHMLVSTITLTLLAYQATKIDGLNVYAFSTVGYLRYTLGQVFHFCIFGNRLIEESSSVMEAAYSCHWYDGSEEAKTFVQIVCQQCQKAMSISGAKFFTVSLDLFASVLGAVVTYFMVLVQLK
T1 sequence (H9A5M2 entry or part of it): as the sequence (H9A5M2 entry or part of it Q417H) above, with H417Q counted along it

`CCc1ccc(NC(=O)CSc2nnc(-c3cccnc3)n2CC)cc1` [VUAA1, acetamide,N-(4-ethylphenyl)-2-[[4-ethyl-5-(3-pyridinyl)-4H-1,2,4-triazol-3-yl]thio]-] was tested, and the “Fluo4 + cells, %” value (CpomOrco [1]; 800 µM VUAA1, Experiment 1, CpomOrco) was 30,99%, the “Fluo4 + cells, %” value (CpomOrco [1]; 800 µM VUAA1, Experiment 2, CpomOrco) was 35,06% and the “percentage of cells sensitive to VUAA1 (relative to total number of visible cells)” value (CpomOrco [1]; 800 µM VUAA1, HEK293A transfected with CpomOrco and EBFP, range of two experiments) was 30.99–35.06%. For the same compound, the EC50 (CpomOrco [1]; [3]) was about 260 µM, the Hill coefficient (CpomOrco [1]; [3]) was ~ 2.5 ± 4.3 and the “maximum response (Hill fit of calcium response amplitudes)” value (CpomOrco [1]; after 30 min incubation at low pHe = 4.7, n = 84, constraints applied to fit) was ~ 1.3 ± 0.7 ∆F and 1.3 ∆F. The Hill coefficient (CpomOrco [1]; control pH conditions (pH 7.4)) was ~ 2.4 ± 0.1, the EC50 (CpomOrco [1]; control pH conditions (pH 7.4), Hill fit) was about 157 µM and the “maximum response (Hill fit of calcium response amplitudes)” value (CpomOrco [1]; control pH conditions (pH 7.4), N = 123 cells) was ~ 6.3 ∆F and ~ 6.3 ± 0.1 ∆F and 6.3 ∆F. For the same compound, the EC50 (CpomOrco^Q417H; [4]) was about 550 µM, the EC50 (CpomOrco^Q417H; [5]) was about 615 µM and the “h (Hill equation)” value (CpomOrco^Q417H; intracellular pH = 5.5) was ~ 4 ± 1.4. The “number of cells sensitive to VUAA1” value (CpomOrco^Q417H; [6]) was 6 out of 9, the “Imax (whole-cell current amplitude, Hill fit)” value (“Imax” for short) (CpomOrco^Q417H; [4]) was ~216 pA and ~ 216 ± 23 pA and the “h (Hill equation)” value (CpomOrco^Q417H; intracellular pH = 8.0) was ~ 5 ± 1.9. For the same compound, the “number of cells sensitive to VUAA1” value (CpomOrco^Q417H; [7]) was 11 out of 17, the “Imax” value (CpomOrco^Q417H; [5]) was ~ 332 pA and ~ 332 ± 44 pA and the “Fluo4 + cells, %” value (CpomOrco+OR6a; 800 µM VUAA1, Experiment 3, CpomOrco+OR6a) was 48,34%. The “Fluo4 + cells, %” value (CpomOrco+OR6a; 800 µM VUAA1, Experiment 4, CpomOrco+OR6a) was 49,71%, the “percentage of VUAA-responsive cells” value (CpomOrco+OR6a; 800 µM VUAA1, HEK293A co-transfected with CpomOrco, CpomOR6a and EBFP, range of two experiments) was 48.34–49.71% and the EC50 (CpomOrco [2]; [4]) was about 561 µM. The EC50 (CpomOrco [2]; [5]) was about 403 µM, the “h (Hill equation)” value (CpomOrco [2]; intracellular pH = 5.5) was ~ 5 ± 3.9 and the “number of cells sensitive to VUAA1” value (CpomOrco [2]; [6]) was 3 out of 4. For the same compound, the “Imax” value (CpomOrco [2]; [4]) was ~ 196 pA and ~ 196 + -32 pA, the “h (Hill equation)” value (CpomOrco [2]; intracellular pH = 8.0) was ~ 4 ± 0.6 and the “number of cells sensitive to VUAA1” value (CpomOrco [2]; [7]) was 8 out of 13. For the same compound, the “Imax” value (CpomOrco [2]; [5]) was ~ 784 pA and ~ 784 ± 40 pA.
